# Several values for one entry are separate records, joined by “and”; a condition that tells them apart may be missing. Identical values can stand only once.
# What was measured:
# Type in all cases: cell-based
# [1] = test system: HL-60 (human promyelocytic leukemia); assay: Cytotoxic activity, alamar blue assay, HL-60
# Description: (§1) HCT116 (human colon carcinoma), HepG2 (human hepatocellular carcinoma), HSC-3 (human oral squamous cell carcinoma), SCC-4 (human oral squamous cell carcinoma), SCC-9 (human oral squamous cell carcinoma), HL-60 (human promyelocytic leukemia), K-562 (human chronic myelogenous leukemia), B16-F10 (murine melanoma), MRC-5 (human lung fibroblast), WT SV40 MEF (wild-type immortalized mouse embryonic fibroblast) and BAD KO SV40 MEF (BAD gene knockout immortalized mouse embryonic fibroblast) cell lines were obtained from the American Type Culture Collection (ATCC, Manassas, VA, USA) and cultured in RPMI-1640 medium (Gibco-BRL, Gaithersburg, MD, USA) with 10% fetal bovine serum (Life, Carlsbad, CA, USA), 2 mM L-glutamine (Vetec Química Fina, Duque de Caxias, RJ, Brazil) and 50 μg/mL gentamycin (Life, Carlsbad, CA, USA). Adherent cells were collected by treatment with 0.25% trypsin EDTA solution (Gibco-BRL, Gaithersburg, MD, USA). All cell lines were cultured in flasks at 37°C in 5% CO2 and sub-cultured every 3-4 days to maintain exponential growth.
# (§2) Cell viability was quantified using the alamar blue assay, according to Ahmed et al.. Cells were inserted in 96-well plates for all experiments (7 x 10^4 cells/mL for adherent cells or 3 x 10^5 cells/mL for suspended cells in 100 μL of medium). […] Negative controls received the vehicle that was used for diluting the compounds tested.
# HCT116 cells = assay: Gene expression analysis by qPCR array (TaqMan Array Human Molecular Mechanisms of Cancer); conditions: HCT116, 12 h, DOX 1 μM, PL 10 μM, 1 2.5 μM, 2 5 μM, negative control RQ = 1.0
# Experimental: HCT116 cells were plated in bottles tissue culture (7x10^4 cells/mL). After 12h of incubation with the complexes, total RNA was isolated from the cells using the RNeasy Plus mini kit (Qiagen, Hilden, Germany) according to the manufacturer’s instructions. The RNA was evaluated by fluorimetry (QuBit™, Life Technologies, Camarillo, CA, EUA). RNA reverse transcription was performed using Superscript VILO™ (Invitrogen Corporation, Waltham, MA, USA). A 96-well plate TaqMan® Array Human Molecular Mechanisms of Cancer (ID 4418806, Applied Biosystems™, Foster City, CA, EUA) was used for the gene expression study by qPCR. The reactions were conducted in the ABI ViiA7 (Applied Biosystems™, Foster City, CA, EUA). The cycle conditions comprised 2 min at 50 °C, 20 s at 95 °C, then 40 cycles of 3 s at 95 °C and 30 s at 60 °C. […] The GAPDH, 18S and HPRT1 genes were used for normalization. All experiments were performed in DNase/RNase free conditions.
# [2] = test system: HCT116 (human colon carcinoma); assay: Cytotoxic activity, alamar blue assay, HCT116
# Description: as §1, §2
# [3] = test system: MRC-5 (human lung fibroblast); assay: Cytotoxic activity, alamar blue assay, MRC-5 non-cancer cells; conditions: Homo sapiens, MRC5, 72 h
# Description: as §1, §2
# [4] = test system: PBMC (human peripheral blood mononuclear cells); assay: Cytotoxic activity, alamar blue assay, PBMC non-cancer cells; conditions: Homo sapiens, PBMC, 72 h
# Experimental: PBMCs were washed and resuspended at a concentration of 3 x 10^5 cells/mL in RPMI 1640 medium with 20% fetal bovine serum, 2 mM glutamine and 50 μg/mL gentamycin at 37°C with 5% CO2. […] The Research Ethics Committee of the Oswaldo Cruz Foundation (Salvador, Bahia, Brazil) approved the experimental protocol (# 031019/2013). All participants signed a written informed consent to participate in the study.
# as §2
smiles,measurement,setting,value
COc1cc(/C=C/C(=O)N2CCC=CC2=O)cc(OC)c1OC [Piplartine],Selectivity index (SI),[1]; SI = IC50[MRC-5]/IC50[HL-60],1.3
same,Selectivity index (SI),[1]; SI = IC50[PBMC]/IC50[HL-60],2.6
same,RQ ABL1,HCT116 cells,1.144
same,RQ AKT1,HCT116 cells,1.285
same,RQ AKT2,HCT116 cells,1.068
same,RQ APC,HCT116 cells,1.236
same,RQ BAX,HCT116 cells,2.160
same,RQ BCAR1,HCT116 cells,0.705
same,RQ BCL2L1,HCT116 cells,0.822
same,RQ BCL2L11,HCT116 cells,1.536
same,RQ BID,HCT116 cells,0.528
same,RQ BRAF,HCT116 cells,1.512
same,RQ CASP8,HCT116 cells,0.915
same,RQ CASP9,HCT116 cells,1.065
same,RQ CCND3,HCT116 cells,1.144
same,RQ CCNE1,HCT116 cells,1.418
same,RQ CDC42,HCT116 cells,2.542
same,RQ CDK2,HCT116 cells,0.722
same,RQ CDK4,HCT116 cells,0.873
same,RQ CDKN1A,HCT116 cells,2.847
same,RQ CDKN1B,HCT116 cells,1.545
same,RQ CRK,HCT116 cells,0.381
same,RQ CTNNB1,HCT116 cells,1.026
same,RQ DVL1,HCT116 cells,0.913
same,RQ E2F1,HCT116 cells,0.764
same,RQ ELK1,HCT116 cells,0.625
same,RQ ERBB2,HCT116 cells,1.273
same,RQ FAS,HCT116 cells,1.371
same,RQ FGF2,HCT116 cells,0.854
same,RQ GRB2,HCT116 cells,1.219
same,RQ GSK3B,HCT116 cells,1.249
same,RQ GUSB,HCT116 cells,5.2
same,RQ HRAS,HCT116 cells,0.928
same,RQ ITGB1,HCT116 cells,0.784
same,RQ KRAS,HCT116 cells,0.133
same,RQ MAPK1,HCT116 cells,1.098
same,RQ MAPK8,HCT116 cells,0.887
same,RQ MAPK14,HCT116 cells,1.009
same,RQ MDM2,HCT116 cells,0.901
same,RQ MYC,HCT116 cells,0.271
same,RQ NFKB1,HCT116 cells,0.870
same,RQ NFKB2,HCT116 cells,0.818
same,RQ NRAS,HCT116 cells,0.600
same,RQ PIK3CA,HCT116 cells,0.910
same,RQ RB1,HCT116 cells,1.314
same,RQ RELA,HCT116 cells,1.240
same,RQ RHOA,HCT116 cells,0.979
same,RQ SRC,HCT116 cells,1.076
same,RQ TCF3,HCT116 cells,0.774
same,RQ TGFB1,HCT116 cells,0.947
same,RQ TGFBR1,HCT116 cells,0.545
same,RQ VEGFA,HCT116 cells,1.245
same,RQ BCL2,HCT116 cells; listed as PL,1.1 and 1.049
same,RQ CCND1,HCT116 cells; listed as PL,0.7 and 0.669
same,RQ CDH1,HCT116 cells; listed as PL,2.5 and 2.494
same,RQ CDKN2A,HCT116 cells; listed as PL,1.6 and 1.575
same,RQ CYCS,HCT116 cells; listed as PL,1.0 and 0.954
same,RQ EGFR,HCT116 cells; listed as PL,1.2 and 1.173
same,RQ FADD,HCT116 cells; listed as PL,0.4 and 0.369
same,RQ FN1,HCT116 cells; listed as PL,2.0 and 1.952
same,RQ FOS,HCT116 cells; listed as PL,31.0 and 30.985
same,RQ FYN,HCT116 cells; listed as PL,1.7 and 1.675
same,RQ FZD1,HCT116 cells; listed as PL,1.0 and 0.953
same,RQ IGF1R,HCT116 cells; listed as PL,2.1 and 2.082
same,RQ ITGA2B,HCT116 cells; listed as PL,3.0 and 2.963
same,RQ ITGAV,HCT116 cells; listed as PL,1.0 and 0.993
same,RQ JUN,HCT116 cells; listed as PL,3.8 and 3.837
same,RQ KDR,HCT116 cells; listed as PL,8.3 and 8.270
same,RQ MAP2K1,HCT116 cells; listed as PL,0.8 and 0.759
same,RQ MAP3K5,HCT116 cells; listed as PL,0.6 and 0.609
same,RQ MAPK3,HCT116 cells; listed as PL,1.7 and 1.726
same,RQ MAX,HCT116 cells; listed as PL,3.1 and 3.051
same,RQ NFKBIA,HCT116 cells; listed as PL,2.0 and 1.989
same,RQ PIK3R1,HCT116 cells; listed as PL,2.4 and 2.352
same,RQ PTEN,HCT116 cells; listed as PL,0.5 and 0.501
same,RQ PTK2,HCT116 cells; listed as PL,0.6 and 0.616
same,RQ PTK2B,HCT116 cells; listed as PL,2.3 and 2.265
same,RQ RAC1,HCT116 cells; listed as PL,0.7 and 0.731
same,RQ RAF1,HCT116 cells; listed as PL,0.6 and 0.574
same,RQ SHC1,HCT116 cells; listed as PL,0.2 and 0.243
same,RQ SMAD4,HCT116 cells; listed as PL,0.9 and 0.942
same,RQ SOS1,HCT116 cells; listed as PL,0.9 and 0.851
same,RQ SPP1,HCT116 cells; listed as PL,1.3 and 1.338
same,RQ TGFBR2,HCT116 cells; listed as PL,1.2 and 1.177
same,RQ TP53,HCT116 cells; listed as PL,1.2 and 1.182
same,Selectivity index (SI),[2]; SI = IC50[MRC-5]/IC50[HCT116],2.7
same,Selectivity index (SI),[2]; SI = IC50[PBMC]/IC50[HCT116],5.3
same,IC50,[3],17.3 µM
same,IC50,[4],34.2 µM
